# Test: Solubility in polyvinylphenol/tetramethylammonium hydroxide (TMAH) aqueous solution
# Assay type: physicochemical
# Settings: mass ratio of compound to polyvinylphenol of the saturated solution; polyvinylphenol in 3% TMAH aqueous solution
# Protocol: In a screw-top tube were put 0.36 g of polyvinylphenol (S-2P from Maruzen Petrochemical Co., Ltd.; Mw: 5800) and 10.00 g of a 3% TMAH aqueous solution and heated to dissolve. A 2.00 g portion of the resulting solution was put in another screw-top tube, and a small amount of each of compound Nos. 1 and 5 and comparative compound No. 1 (intermediate No. 7 obtained in step 1 of Example 1-7) was added thereto and heated. A visual check was made to see whether the compound dissolved. This operation was repeated until saturation. The saturated solution was allowed to stand one day to make sure that no solid precipitated. The mass ratio of each compound to the polyvinylphenol of the saturated solution was taken as a parameter of solubility.
row,Solubility (%),Compound
1,< 1,"Cn1c2ccccc2c(=O)c2cc([S+](c3ccc(F)cc3)c3ccc(F)cc3)ccc21 [Comp. Compound No. 1, reference compound]"
2,70,Cn1c2ccccc2c(=O)c2cc([S+](c3ccc(O)cc3)c3ccc(O)cc3)ccc21 [Compound No. 1]
3,29,O=c1c2ccccc2n(Cc2cccc(O)c2)c2ccc([S+](c3ccc(F)cc3)c3ccc(F)cc3)cc12 [Compound No. 5]
